Measurements taken from patent US7019000B1, “Method of treating a disease condition caused or exacerbated by an HPV” (Institute of Molecular & Cell Biology, priority 1998, dated 2006).

Key:
[1] = biological target: T1, HPV-16-E6 (recombinant GST-E6 protein) (Human papillomavirus type 16, UniProt P03126); experiment: biochemical; type: biochemical
T1 construct: The full length HPV16 E6 gene was amplified via polymerase chain reaction and cloned in the vector pGeX4T2; made in house; host or cells: E. coli strain AB1899
From the text: Where the chelated metal is zinc, zinc release can be measured as an increase in the fluorescence of the zinc-selective fluorophore TSQ (N-(6-methoxy-8-quinolyl)-p-toluenesulfonamide) (18) in the presence of the protein and the active compound (TSQ assay).
In such an assay, the increase in fluorescence measured can be described as a percentage of the increase in fluorescence observed for a positive control compound which provides 100% zinc release. A suitable positive control compound is H2O2. Preferred compounds which may be useful in the present invention are those which release at least 30% of the chelated zinc as measured by the TSQ assay. Particularly preferred compounds for use in the present invention are those which release at least 40% of the chelated zinc, more preferably at least 50%.
In earlier studies, reduced glutathione (GSH) was required to elute recombinant glutathione sulfhydryl transferase E6 (recombinant (GST-E6)) protein during the purification process. However, the reducing activity of the GSH sulfhydryl groups protected GST-E6 protein from the chemical attack by agents, such as the disulphide based organic compounds of Formula (I) and (II). […] Individual assays were done in the presence of 9 μg GST-E6 protein, corresponding to a concentration of 1 μM GST-E6 protein and 2 μM bound zinc, assuming the presence of two Zn ions per protein.
Release of zinc from HPV-16-E6 was monitored by the change in fluorescence of the zinc-selective fluorophore TSQ (N-6-methoxy-8-quinolyl)-p-toluenesulfonamide), (Molecular Probes, Eugene, Oreg.) by modification of published procedures (25, 26, 27). In a total reaction volume of 200 μl, 9 μg (1 μM) recombinant GST-E6 protein (corresponding to a concentration of 1 μM), bound to glutathione-sepharose beads, were incubated with 10 μM of each compound or 0.6% (170 mM) H2O2 in TSQ-assay buffer (10 mM sodium phosphate buffer pH7.0, 10% glycerol) for 2 hours at room temperature (200 μl total volume in 96-well plates). Immediately after addition of 100 μM TSQ, the increase in fluorescence was measured on a SLT Fluostar (355 nm excitation filter and 460 nm emission filter, Tecan, Salzburg).
Values given are % values of Zinc release. The relative fluorescence units (RFU) were normalized to the amount of zinc released by H2O2 (regarded as 100%). The concentration of compound used was 10 μM for C27–C35, 13 μM for C37–C83, H2O2 was used at 0.3% for C27–C35 and 0.2% for C37–C83.

[2] = test system: SiHa, Caski, HeLa; experiment: Cell viability (WST1 assay), cervical epithelial tumour cells; type: cell-based, human; conditions: 50 μM, treated 3 times in 3 days
From the text: (§1) All cell lines were obtained from the American Type Culture Collection (Manassas, Va.) unless otherwise noted. SiHa (human cervical epithelial tumor line, HPV16-positive), CaSki (human cervical epithelial tumor line, HPV16-positive), HaCat (immortalized human skin epithelial cell line, HPV-negative), HeLa (human cervical epithelial tumor line, HPV18-positive), 444 (hybrid of HeLa and fibroblast, HPV18-positive) obtained from Eric Stanbridge (Universitv of California, Irvine), MCF7 (human mammary epithelial tumor cell line, HPV-negative), HT3 (human cervical epithelial tumor cell line, HPV-negative) was obtained from the German Cancer Research Institute/DKFZ-Heidelberg, and HepG2, (human liver epithelial tumor cell line, HPV-negative), were grown in Dulbecco's modified Eagle medium (DMEM) supplemented with 10% fetal calf serum, 100 U penicillin and 1000 U streptomycin. Cells were allowed to attach to the surface of microwell dishes overnight and subsequently, incubated with medium containing the zinc ejecting compounds at the concentrations (10–100 μM). Viability of the cells was scored by measuring the absorption of the tetrazolium salt WST1 (Roche Molecular Biochemicals, Mannheim, Germany) in an Elisa-plate reader (Tecan, Salzburg, Austria) at a wavelength of 450 nm and a reference wavelength of 630 nm. […]

[3] = biological target: T2, E6 binding to E6BP and E6AP (Human papillomavirus type 16, UniProt P03126); experiment: GST-pulldown experiment, in vitro translated E6 binding to GST-E6BP/GST-E6AP; set-up: species or system HPV-16; conditions: 35S-Cys in vitro translated E6
T2 construct: The open reading frame of HPV-16 E6, cloned into the Hind III and PstI site of the pSP64 plasmid; made in house; host or cells: TNT-SP6 coupled reticulocyte lysate (Promega) for E6; E. coli AB1899 for the GST fusions
Protocol: The open reading frame of HPV-16 E6, cloned into the Hind III and PstI site of the pSP64 plasmid (33), was in vitro translated with ^35S-cysteine by using the TNT-SP6 Coupled Reticulocyte Lysate System as recommend by the manufacturer (Promega). All washing and binding reactions were performed with the E6BP-binding buffer described (5) but without DTT (100 mM NaCl, 100 mM Tris-HCl pH8.0, 1% NP40, 0.1% nonfat dry milk and 1 mM PMSF. 40 μl of in vitro translated E6 plus 360 μl of E6BP-binding buffer were incubated for 2 hrs at room temperature with test compounds at difference concentrations from 0–1 mM (dissolved in DMSO at 1%), 5 mM EDTA, and H2O2 at 0.3% (85 mM). The sample was then passed over columns captaining glutathione-sepharose beads with bound GST, GST-E6, GST-E6BP or GST-E6AP proteins. The beads were heated to 95° C. in 50 μl Laemmli sample buffer (BIO-RAD) with 2.5% 2-mercaptoethanol, subjected to electrophoresis on a 15% polyacrylamide gel, fixed, stained, and autoradiographed. Interference with complex formation identified reactive compounds. Desitometric quantification was performed with a BIO-RAD/GS700 imaging desitometer.

[4] = test system: HT3, MCF7, HaCat and HeLa-fibroblast hybrid cell line 444; experiment: Cell viability (WST1 assay), HPV-negative cells and 444 hybrid; type: cell-based, human; conditions: treated 3 times in 3 days
From the text: as §1

[5] = test system: SiHa, HeLa, 444 and HaCat cells; experiment: Microscopic observation of cell viability (FIG. 4); type: cell-based, human; conditions: E6-dependent cells (SiHa and HeLa) vs E6-independent cells (444 and HaCat)
Protocol: FIG. 4 photographically depicts viability of SiHa, HeLa, 444 and HaCat cells when treated with C16 compound.
Cell viability and the cytotoxic specificity for a number of other compounds of Formula (I) and (II) were also determined.

T1 sequence (P03126 whole entry): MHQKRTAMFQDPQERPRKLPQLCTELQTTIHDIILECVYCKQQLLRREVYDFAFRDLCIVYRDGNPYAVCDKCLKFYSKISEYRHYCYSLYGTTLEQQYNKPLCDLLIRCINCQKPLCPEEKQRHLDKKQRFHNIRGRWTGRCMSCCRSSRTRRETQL
T2 sequence (P03126 whole entry, the tested form may be a part): as the sequence (P03126 whole entry) above

Structure (SMILES): C1CN(SSN2CCOCC2)CCO1 [Compound C16]
- zinc release in original TSQ assays ([1]; GSH present at 5–10 mM): capable of releasing zinc
- activation at 10 µM ([1]; read-out: TSQ % (% values of Zinc release)): 63.2%
- inhibition of cell viability [2]: substantial and specific inhibition of cell viability
- inhibition of E6 binding to E6BP and E6AP (GST-pulldown, FIG. 2) [3]: inhibits E6 binding to both cellular proteins
- effect on cell viability [4]: little or no effect
- microscopic observation of cells [5]: differential effect
